Values joined by “and” are separate entries in the source; they are usually repeats but may differ in a detail not shown here. Identical values can stand only once.
Key:
human IPMK [1] = biological target: T1, human IPMK (Homo sapiens, UniProt Q8NFU5); assay: IPMK kinase activity assay (33P-radiolabeled HPLC assay); format: biochemical; details: 33P-1,3,4,5-IP4 to InsP5, 1.0 mM ATP, 2 nM IPMK; mean with standard error, n = 3 (compound 1 n = 5)
T1 sequence (Q8NFU5 with tags, fused parts or gaps): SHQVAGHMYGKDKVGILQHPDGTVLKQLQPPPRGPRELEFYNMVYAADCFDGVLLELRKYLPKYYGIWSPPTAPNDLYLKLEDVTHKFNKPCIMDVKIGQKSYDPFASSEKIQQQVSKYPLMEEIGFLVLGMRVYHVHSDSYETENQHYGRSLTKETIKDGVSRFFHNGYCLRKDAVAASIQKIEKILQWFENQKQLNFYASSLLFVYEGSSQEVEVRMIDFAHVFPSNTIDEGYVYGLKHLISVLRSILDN
Experimental: (§1) For all enzyme assays, a serial dilution of the enzyme was performed in the kinase assay to determine the linear range of the enzyme concentration to be used.
(§2) We prepared ^33P-1,3,4,5-IP4 by incubating 1,4,5-IP3, ^33P-ATP, and IPMK, isolated the product with a 30 K d MW cutoff filter. Each reaction contained trace amounts (4,00,000 disintegrations per minute (dpm)) of ^33P-1,3,4,5-IP4 in a 100 μL incubation containing 20 mM HEPES (pH 7.2), 100 mM KCl, 3.5 mM MgCl2, 20 μM EDTA, 1.0 mM ATP, 1 μM 1,3,4,5-IP4, plus test compound in DMSO (or vehicle control) plus 2 nM IPMK. Assays were analyzed by HPLC, using a PartiSphere SAX 120, 5 μm, 4.6 × 125 mm HPLC column with a 250 μL injection volume. The elution gradient was generated by mixing Buffer A (1 mm Na2EDTA) with Buffer B (Buffer A plus 2.5 M NH4H2PO4, pH 3.9) and monitored by a β-RAM 6 in-line scintillation detector. A 1.0 mL/min elute was mixed with 0.5 or 2.5 mL/min monoflow scintillation liquid for ^33P or ^3H, respectively. Radiochromatography data were collected and analyzed using Laura software (v6.1.2.36).

human IPMK [2] = assay: as above; format: biochemical; details: for selectivity for IPMK over IP6K1: from IC50 values; for IP6K1/IPMK: ratio of IP6K1 IC50 to IPMK IC50
Experimental: as §1, §2

human IP6K1 = biological target: T2, human IP6K1 (Homo sapiens, UniProt Q92551); assay: IP6K kinase activity assay (enzyme-coupled, malachite green Pi release); format: biochemical; details: 100 nM IP6K1, 25 μM InsP6, 500 μM ATP, 37 °C; mean with standard error, n = 3
T2 construct: made in house
Experimental: as §1
An enzyme-coupled assay was used to measure IP6K activity. Enzyme activity was assayed at 37 °C in 50 μL of reaction mixtures containing 100 nM IP6K1, 5.0 μM human Dipp1, 20 mM HEPES (pH 7.2), 100 mM KCl, 3.5 mM MgCl2, 20 μM EDTA, 25 μM InsP6, and 500 μM ATP for 60–120 min. Pi release was determined with a malachite green colorimetric assay. Reactions were quenched by the addition of 100 μL of phosphate detection reagent (36:1 v/v of 2.6% sodium molybdate in 2.5 M HCl: 0.126% malachite green chloride). Phosphate (Pi) release was quantified from the absorbance at 620 nm by using appropriate standards.

IP3K-A = IP3K-A (Homo sapiens, UniProt P23677); assay: IP3K kinase activity assay ([3H]-InsP3, HPLC); format: biochemical; details: 1.0 μM 1,4,5-InsP3, 1.0 mM ATP, 0.25 nM IP3K-A; standard error, n = 3
Experimental: as §1
Each reaction contained 1.0 μM [^3H]-1,4,5-InsP3 (approximately 30,000 dpm; American Radiolabeled Chemicals, Inc., ART 0270) in a 100 μL incubation containing 20 mM HEPES (pH 7.2), 100 mM KCl, 3.5 mM MgCl2, 20 μM EDTA, 1.0 mM ATP, 1.0 μM 1,4,5-InsP3, plus test compound in DMSO (or vehicle control), and 0.25 nM IP3K-A. Reactions were quenched after 60 min by the addition of 2 volumes of 0.2 M NH4H2PO4, pH 3.9 and 20 mM EDTA and stored at 27 °C. Assays were analyzed by HPLC, using a PartiSphere SAX 120 Å, 5 μm, 4.6 × 125 mm HPLC column with a 250 μL injection volume. The elution gradient was generated by mixing Buffer A (1 mm Na2EDTA) with Buffer B (Buffer A plus 2.5 M NH4H2PO4, pH 3.9) and monitored by a β-RAM 6 in-line scintillation detector. A 1.0 mL/min elute was mixed with 0.5 or 2.5 mL/min monoflow scintillation liquid for ^33P or ^3H, respectively. Radiochromatography data were collected and analyzed using Laura software (v6.1.2.36).

human IPMK [3] = biological target: T1, human IPMK; assay: Isothermal titration calorimetry (ITC); format: binding; details: 15 μM IPMK in cell, 150 μM inhibitor in syringe, 25 °C, pH 7.2
Experimental: Isothermal calorimetry experiments were performed using a MicroCal PEAQ-ITC (Malvern Panalytical) with 15 μM recombinant human IPMK in the sample cell and 150 μM inhibitor 1 in the syringe, each of which was maintained at 25 °C in buffer containing 20 mM Tris-HCl, pH 7.2, 150 mM KCl, 0.05 mM EDTA, and 0.8 mM MgCl2. The sample cell (volume = 204 μL) and the syringe were cleaned before each run. Thermograms were constructed from 20 injections, each of which involved 2.0 μL of ligand delivered for 4.0 s, with an equilibration time of 150–300 s between each injection. The stirring speed was set to 750 rpm. Data were fitted to a single binding site model using the analysis software provided by the manufacturer, as supported by X-ray crystallography. At least three runs were performed.

[4] = design: method as in recent work from another group (number not given); details: mice, intraperitoneal injection; ref recent work from another group (number not given); cited from earlier work
[5] = system: human U251-MG glioblastoma cells; design: method as in other studies (number not given); details: ref other studies (number not given); cited from earlier work

T2 sequence (Q92551 whole entry): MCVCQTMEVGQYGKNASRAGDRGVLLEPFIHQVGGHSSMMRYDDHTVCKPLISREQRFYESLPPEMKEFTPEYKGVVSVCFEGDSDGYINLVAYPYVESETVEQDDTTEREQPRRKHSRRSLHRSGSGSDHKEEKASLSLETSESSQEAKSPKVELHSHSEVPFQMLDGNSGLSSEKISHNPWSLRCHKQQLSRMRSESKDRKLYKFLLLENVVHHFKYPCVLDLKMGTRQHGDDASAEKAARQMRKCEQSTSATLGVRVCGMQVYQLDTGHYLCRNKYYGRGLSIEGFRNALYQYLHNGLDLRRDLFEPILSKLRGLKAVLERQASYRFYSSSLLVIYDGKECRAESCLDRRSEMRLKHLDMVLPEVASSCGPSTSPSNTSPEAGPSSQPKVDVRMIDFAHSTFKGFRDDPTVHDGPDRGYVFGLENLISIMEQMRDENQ
Sequence of IP3K-A (P23677 whole entry): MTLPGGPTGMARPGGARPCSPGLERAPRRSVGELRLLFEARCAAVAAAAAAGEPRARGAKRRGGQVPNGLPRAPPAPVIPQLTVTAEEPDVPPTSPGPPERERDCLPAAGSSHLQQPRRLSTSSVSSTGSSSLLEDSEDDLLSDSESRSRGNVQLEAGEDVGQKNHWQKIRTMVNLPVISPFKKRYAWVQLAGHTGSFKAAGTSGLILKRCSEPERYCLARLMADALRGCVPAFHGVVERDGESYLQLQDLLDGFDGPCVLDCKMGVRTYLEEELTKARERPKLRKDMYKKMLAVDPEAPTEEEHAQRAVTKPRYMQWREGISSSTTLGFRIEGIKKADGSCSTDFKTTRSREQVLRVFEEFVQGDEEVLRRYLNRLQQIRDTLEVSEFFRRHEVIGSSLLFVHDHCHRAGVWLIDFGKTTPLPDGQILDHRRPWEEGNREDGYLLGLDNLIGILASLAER

Row | SMILES | IC50 (human IPMK [1]) | selectivity for IPMK over IP6K1 (human IPMK [2]) | IP6K1/IPMK (human IPMK [2]) | IC50 (human IP6K1) | IC50 (IP3K-A) | Kd (human IPMK [3]) | clearance, half-life, and volume of distribution [4] | cellular growth [5] | inositol phosphate metabolism [5]
1 | c1ccc(Oc2ccc(-c3onc4ccc(-c5nnn[nH]5)cc34)cc2)cc1 [Compound 9] | 11 ± 2 nM |  | 115 | 1270 nM and 1300 nM |  |  |  |  | 
2 | O=C(Nc1ccc(-c2onc3ccc(-c4nnn[nH]4)cc23)cc1)C1CC1 [Compound 10] | 3.5 ± 0.4 nM |  | 10 | 35.8 nM and 36 nM |  |  |  |  | 
3 | c1cc(OC2CCNCC2)cc(-c2onc3ccc(-c4nnn[nH]4)cc23)c1 [Compound 12] | 3.4 ± 0.5 nM |  | 8.8 |  |  |  |  |  | 
4 | Clc1cnc(Oc2cccc(-c3onc4ccc(-c5nnn[nH]5)cc34)c2)c(Cl)c1 [Compound 13] | 9.5 ± 2 nM |  | 1.9 | 19 ± 4 nM |  |  |  |  | 
5 | c1cc(-c2onc3ccc(-c4nnn[nH]4)cc23)cc(C2CCN(C3CCC3)CC2)c1 [Compound 14] | 3 nM and 2.8 nM |  |  |  |  |  | reasonable | decrease | decrease
6 | O=C(Nc1cccc(-c2onc3ccc(-c4nnn[nH]4)cc23)c1)C1CCCC1 [Compound 15] | 1.1 nM and 1.13 nM |  | 36 | 40.1 ± 4 nM |  |  |  |  | 

Now from value to compound, other results behind:

Row | IC50 (human IPMK [1]) | selectivity for IPMK over IP6K1 (human IPMK [2]) | IP6K1/IPMK (human IPMK [2]) | IC50 (human IP6K1) | IC50 (IP3K-A) | Kd (human IPMK [3]) | SMILES | clearance, half-life, and volume of distribution [4] | cellular growth [5] | inositol phosphate metabolism [5]
7 | 12.8 ± 2 nM | approximately 10 fold | 11.4 | 146 ± 23 nM | 8000 nM | 11 nM | Cc1cc(C)cc(-c2onc3ccc(/C=C/C(=O)O)cc23)c1 [Compound 1] |  |  | 
8 | 8.1 ± 2 nM |  | 5.6 | 45 ± 7 nM |  |  | Cc1cc(C)cc(-c2onc3ccc([C@H]4C[C@@H]4C(=O)O)cc23)c1 [Compound 2] |  |  | 
9 | 29 ± 5 nM |  | 3 |  |  |  | Cc1cc(C)cc(-c2onc3ccc(C(=O)O)cc23)c1 [Compound 3] |  |  | 
10 | 1.9 ± 0.2 nM |  | 13 | 24 ± 6 nM |  |  | Cc1cc(C)cc(-c2onc3ccc(-c4nnn[nH]4)cc23)c1 [Compound 4] |  |  | 
11 | 3.8 ± 0.4 nM | 10 fold | 10 | 38 ± 8 nM |  |  | c1ccc(-c2onc3ccc(-c4nnn[nH]4)cc23)cc1 [Compound 6] |  |  | 
12 | 2.5 ± 0.3 nM |  | 9.2 |  |  |  | FC(F)(F)c1ccc(-c2onc3ccc(-c4nnn[nH]4)cc23)cc1 [Compound 7] |  |  | 
13 | 3.3 ± 0.4 nM |  | 13 | 59 ± 14 nM |  |  | FC(F)(F)Oc1ccc(-c2onc3ccc(-c4nnn[nH]4)cc23)cc1 [Compound 8] |  |  | 
14 | 0.99 nM and 1 nM | 50 fold | 52 | 52 nM and 51.8 nM |  |  | O=C(Nc1cccc(-c2onc3ccc(-c4nnn[nH]4)cc23)c1)C1CC1 [Compound 11] |  |  | 
